In the data set the test system is patients with disease modifying antirheumatic drug (DMARD)-resistant Rheumatoid Arthritis (RA).

Experimental: 20 patients with disease modifying antirheumatic drug (DMARD)-resistant Rheumatoid Arthritis (RA) are chosen for a clinical trial assessing safety and efficacy of 25% Xenon administration with 75% air. A total of 10 liters of gas inhaled. Administration is performed 3 times per week.
Safety is determined by assessment of hematological biochemical, and coagulation parameters on baseline, and days 30, 60, and 90. Efficacy is assessed by CRP, ESR, anti-citrulline antibody, RF, Quality of Life Questionnaire, 28-joint disease activity score (DAS28), European League against Rheumatism (EULAR) response criteria and immunological parameters. […]
Safety will be assessed throughout the study with the use of direct evaluation and patient reporting during study visits or patient-initiated telephone contacts. The types, frequencies, severity, and duration of any reported adverse event or abnormalities in clinical laboratory values, physical examinations, vital signs, or special cardiovascular evaluations will be assessed. […]
To assess preliminary evidence of efficacy, the following assessments will be analyzed at following time points and compared to baseline values: […]
Quality of Life Assessment at 1, 2, and 3 Months Measured by: • Change in Rheumatoid Arthritis Quality of Life (RAQoL) questionnaire

Regarding `[Xe]` [Xenon, xenon], under “25% Xenon with 75% air, 10 liters inhaled, 3 times per week, DAS28, EULAR, RF, ESR, CRP, anti-citrulline antibody, RAQoL at 1, 2 and 3 months vs baseline”, the “clinical and immunological parameters of RA” value is “reduction of clinical and immunological parameters of RA is noted in a statistically significant manner”. The “treatment associated adverse events” value (human, in vivo) is “no significant treatment associated adverse events”.

For the origin of these results see US10022397B2, “Treatment of rheumatoid arthritis using noble gas mixtures” (Nobilis Therapeutics, Inc., priority 2016, dated 2018).
